The source of these data is patent US20240165196A1, “Beta-Lactamase Inhibitors” (VIB VZW, priority 2021, published 2024).

Series [1] concerns E. coli strains carrying NDMs. Briefly: checkerboard assay (FICI), TEM3.2 and penicillin. It counts as cell-based. The settings on record: strains containing NDMs; significant spread. From the text: FIGS. 4A-4K. […] IV—Intravenous, IP—Intraperitoneal, SC—Subcutaneously. The data shown is from a single experiment with 4 animals per group. […] (ns—non significant, #—P>0.05, *—P≤0.05, ***—P≤0.01, ****—P≤0.001). (FIG. 4G) FICI plot as in FIG. 2, for the E. coli strains indicated and the combination of penicillin and the TEM3.2 peptide. […] (FIG. 4J) Same as FIG. 4H for peptide BGAL. (FIG. 4K) Same as FIG. 4H for peptide P33.
As we wondered about the generality of our peptide design approach, we set out to design a peptide to inactivate a structurally unrelated beta-lactamase. […] This enzyme was first isolated from a patient in 200850, by 2010 could be detected in clinical isolates throughout the UK and India^51 and by 2015 was detected in over 70 countries worldwide^52.
For the analysis of the synergy between the peptides with other antibiotics, a checkerboard assay was performed. […] FICI is calculated as the sum of the individual fractional inhibitory concentrations (FICs) for each drug (where MIC A and MIC B denote the MIC of each drug alone, and MIC AA+B and MIC BA+B denote the concentrations of A and B in the drug combination). […]

The test system of series [2] is primary mouse cortical neurons. In kind it is cell-based.
Series [3] has as its system NCI-H441. It counts as cell-based, human.
A short description of series [4]: peptide solubility and self-aggregation (DLS, Thioflavin T, electron microscopy, pFTAA). An excerpt:
Three replicates are shown for each condition. […] A single representative image is shown. […] Three replicates are shown for each condition. […] A single representative image is shown. […] A single representative image is shown. […] A single representative image is shown.
A DynaPro DLS plate reader instrument (Wyatt, Santa Barbara, CA, USA) equipped with an 830 nm laser source was used to determine the hydrodynamic radius (RH) of the peptide particles. Two hundred microliters of each sample (at 100 or 10 μM, unless stated otherwise) were placed into a flat-bottom 96-well microclear plate (Greiner, Frickenhausen, Germany). The autocorrelation of scattered light intensity at a 32° angle was recorded for 5 s and averaged over 20 recordings to obtain a single data point. The Wyatt Dynamics v7.1 software was used to calculate the hydrodynamic radius by assuming […] particles. The amyloid-specific dye Thioflavin-T (Th-T, Sigma-Aldrich, CAS number 2390-54-7) was used to study the aggregation state of peptides.

For Ac-RLTAFLHNRRPRLTAFLRQRR-NH2 [TEM3.2], the “synergy with penicillin (FICI)” value in series [1] is given as “little or no synergy”. In addition, the “cytotoxicity (Cell Titer Blue)” value in series [2] and in series [3] was “not cytotoxic” in each case. Also, the “solubility by Dynamic Light Scattering” value in series [4] (50 μM peptide in buffer alone (50 mM Tris pH 8.5, 300 mM NaCl)) is on record as “soluble in vitro”. The “aggregation of the peptide in presence of polyphosphate (ThT binding, electron microscopy)” value in series [4] (50 μM peptide, buffer with polyP) is on record as “amyloid-like aggregation”.
